Columns and labels:
[1] = target: N6-adenosine-methyltransferase catalytic subunit (Homo sapiens, UniProt Q86U44); experiment: Binding affinity to METTL3 (unknown origin) assessed as dissociation constant
NOMO-1 = experiment: Antiproliferative activity against human NOMO-1 cells assessed as reduction in cell viability incubated for 48 hrs by MTT assay; type: functional, cell-based; settings: NOMO-1, 48 h

N6-adenosine-methyltransferase catalytic subunit, sequence (Q86U44 whole entry): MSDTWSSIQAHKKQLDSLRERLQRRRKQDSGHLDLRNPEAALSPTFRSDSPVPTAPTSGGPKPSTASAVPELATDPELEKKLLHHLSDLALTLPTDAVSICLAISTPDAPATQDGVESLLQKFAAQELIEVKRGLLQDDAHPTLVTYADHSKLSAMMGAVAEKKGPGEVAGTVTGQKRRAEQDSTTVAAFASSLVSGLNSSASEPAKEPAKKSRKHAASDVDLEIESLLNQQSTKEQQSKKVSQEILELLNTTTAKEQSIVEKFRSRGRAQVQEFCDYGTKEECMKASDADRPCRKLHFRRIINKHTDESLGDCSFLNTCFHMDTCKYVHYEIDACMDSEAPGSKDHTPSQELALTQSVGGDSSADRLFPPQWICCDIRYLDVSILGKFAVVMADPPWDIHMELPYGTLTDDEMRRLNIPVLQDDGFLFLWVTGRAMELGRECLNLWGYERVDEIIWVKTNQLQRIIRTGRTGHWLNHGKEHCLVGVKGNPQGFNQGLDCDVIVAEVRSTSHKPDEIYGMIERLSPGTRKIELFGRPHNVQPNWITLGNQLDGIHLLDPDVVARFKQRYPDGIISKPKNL

SMILES: C/C(=N\NC(N)=S)c1ccc(F)cc1
- Kd [1]: 2.84 µM

SMILES: N#Cc1ccc(Cn2ccc3c4c(N)nc(N)nc4ccc32)cc1
- IC50 (NOMO-1): 0.0206 µM

SMILES: C/C(=N\N=C(/N)S)c1ccccc1 [PHENYL(METHYL)THIOSEMICARBAZONE]
- Kd [1]: 3.31 µM
